Assay results from patent publication US7723119B2, “Method for determining solubility of a chemical compound” (Sirius Analytical Instruments Ltd., priority 2004, dated 2010).

Experiment: solubility determination by Chasing Equilibrium pH-metric titration
Type: physicochemical
Text: In the Dissolution stage, the test solution is titrated with base titrant. In the Seeking Precipitation and Additional Precipitation stages, the test solution is titrated with acid titrant.
After the final data point of the Additional Precipitation stage has been collected, the method moves on to the Chasing Equilibrium stage. Chasing Equilibrium for an acidic sample is based on the following principles:
The first points are collected while adding base titrant to a supersaturated test solution. The addition of titrant is controlled by a computer program. The slope decreases with each aliquot of base that is added. […] Another aliquot of base is added to confirm that the slope is negative. If the slope remains negative, another data point is taken after adding no titrant. […] By successively adding aliquots of base and acid, the slope can be forced to change direction. When the slope has changed direction several (e.g. five) times the Chasing Equilibrium stage of the procedure is deemed to be complete.
The concentration of unionised solute in solution is calculated for each point in FIG. 7, and plotted against slope (pH/min) as shown in FIG. 8. The points are then connected by a line in the same order that they appeared in FIG. 7. The points corresponding to where the line crosses the zero value of the slope (pH/min) axis are determined by interpolation. The concentration equivalent to these zero slope, crossing points is determined. The solubility is then obtainable as the mean concentration calculated from the several zero slope, crossing points.
For each point located on either side of a zero slope crossing, the amount of neutral sample in solution could be calculated in the following steps:
1. […]
4. The concentration of free positive ions (e.g. K^+) is determined from the amount of base titrant (e.g. KOH) plus any positive ions in the test compound if it was a salt: [K^+]=(vbcb+mszs+/wf)/vt • wherein: cb is the concentration of base titrant • ms is the sample weight of test compound • zs+ is the charge of any positive salt counter-ions • wf is the formula weight of the test compound. […]

For `O=C(O)Cc1ccccc1Nc1c(Cl)cccc1Cl` [diclofenac], the solubility thermodynamic (0.15 M KCl solution titrated with acid and base, saline or isotonic, thermodynamic from solid, straight line interpolation of points A and B to zero pH slope, 0.15M KCl solution, sample introduced as sodium salt, read-out: equilibrium solubility (concentration of unionised compound at zero pH slope)) was about 0.732 µg/mL, the “dissolved neutral test sample” value (point A, one side of zero-slope crossing, pH=5.64453, pH slope=2.87 E-05) was 759 ng/mL and the “dissolved neutral test sample” value (point B, other side of zero-slope crossing, pH=5.70437, pH slope=-3.5 E-06) was 728 ng/mL.
